# Test results published in the supplement of paper PMC10307832.
# Legend:
# Assay in all cases: relative viability (nuclei count vs DMSO), 5 days (fraction); higher = more cells survive
# NCI-H2170 = system: NCI-H2170
# Procedure, shortened: (§1)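 Lung cancer cell lines were seeded in 1536-well plates and dosed by pin tool the next day, with either a single drug or a fixed anchor-drug dose combined with five library-drug doses (not always all listed) spaced in √10 steps. Five days later, one step fixed the cells and stained their nuclei (final 0.05% Triton X-100, 1% formaldehyde, 1 ug/ml Hoechst), and nuclei were counted on 4× images. Relative viability is the nuclei count in treated wells divided by the count in vehicle wells, and each value is the median of duplicate plates.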
# NCI-H1944 = system: NCI-H1944
# Procedure, shortened: as §1
# HCC-78 = system: HCC-78
# Procedure, shortened: as §1
# NCI-H2347 = system: NCI-H2347
# Procedure, shortened: as §1
# SW 900 = system: SW 900
# Procedure, shortened: as §1
# PC-14 = system: PC-14
# Procedure, shortened: as §1
# HCC-366 = system: HCC-366
# Procedure, shortened: as §1
# NCI-H650 = system: NCI-H650
# Procedure, shortened: as §1
# NCI-H727 = system: NCI-H727
# Procedure, shortened: as §1
# RERF-LC-KJ = system: RERF-LC-KJ
# Procedure, shortened: as §1
# NCI-H1650 = system: NCI-H1650
# Procedure, shortened: as §1
# NCI-H1915 = system: NCI-H1915
# Procedure, shortened: as §1
# BEN = system: BEN
# Procedure, shortened: as §1
# EMC-BAC-2 = system: EMC-BAC-2
# Procedure, shortened: as §1
# NCI-H2085 = system: NCI-H2085
# Procedure, shortened: as §1
# NCI-H2087 = system: NCI-H2087
# Procedure, shortened: as §1
# NCI-H1666 = system: NCI-H1666
# Procedure, shortened: as §1
# LC-2-ad = system: LC-2-ad
# Procedure, shortened: as §1
# LXF-289 = system: LXF-289
# Procedure, shortened: as §1
# NCI-H1993 = system: NCI-H1993
# Procedure, shortened: as §1
# NCI-H358 = system: NCI-H358
# Procedure, shortened: as §1
# NCI-H2228 = system: NCI-H2228
# Procedure, shortened: as §1
smiles,measurement,setting,value
Nc1cccc2c1CN(C1CCC(=O)NC1=O)C2=O (configuration not stated) [Lenalidomide] + Nc1ncn([C@H]2C[C@H](O)[C@@H](CO)O2)c(=O)n1 [Decitabine] (partner 2 µM),relative viability,NCI-H2170; first compound 0.253 µM,0.49
same,relative viability,NCI-H2170; first compound 0.8 µM,0.429
same,relative viability,NCI-H2170; first compound 2.53 µM,0.469
same,relative viability,NCI-H2170; first compound 8 µM,0.471
same,relative viability,NCI-H1944; first compound 0.253 µM,0.446
same,relative viability,NCI-H1944; first compound 2.53 µM,0.457
same,relative viability,NCI-H1944; first compound 8 µM,0.393
same,relative viability,HCC-78; first compound 0.253 µM,0.731
same,relative viability,HCC-78; first compound 0.8 µM,0.637
same,relative viability,HCC-78; first compound 2.53 µM,0.703
same,relative viability,HCC-78; first compound 8 µM,0.558
same,relative viability,NCI-H2347; first compound 0.253 µM,0.616
same,relative viability,NCI-H2347; first compound 0.8 µM,0.617
same,relative viability,NCI-H2347; first compound 2.53 µM,0.624
same,relative viability,NCI-H2347; first compound 8 µM,0.566
same,relative viability,SW 900; first compound 2.53 µM,0.51
same,relative viability,SW 900; first compound 8 µM,0.532
same,relative viability,PC-14; first compound 0.253 µM,0.199
same,relative viability,PC-14; first compound 0.8 µM,0.189
same,relative viability,PC-14; first compound 2.53 µM,0.24
same,relative viability,PC-14; first compound 8 µM,0.226
same,relative viability,HCC-366; first compound 0.253 µM,0.337
same,relative viability,HCC-366; first compound 0.8 µM,0.377
same,relative viability,HCC-366; first compound 2.53 µM,0.366
same,relative viability,HCC-366; first compound 8 µM,0.354
same,relative viability,NCI-H650; first compound 0.253 µM,0.312
same,relative viability,NCI-H650; first compound 0.8 µM,0.349
same,relative viability,NCI-H650; first compound 2.53 µM,0.351
same,relative viability,NCI-H650; first compound 8 µM,0.332
same,relative viability,NCI-H727; first compound 0.253 µM,0.778
same,relative viability,NCI-H727; first compound 0.8 µM,0.637
same,relative viability,NCI-H727; first compound 2.53 µM,0.99
same,relative viability,NCI-H727; first compound 8 µM,0.616
same,relative viability,RERF-LC-KJ; first compound 0.253 µM,0.717
same,relative viability,RERF-LC-KJ; first compound 0.8 µM,0.655
same,relative viability,RERF-LC-KJ; first compound 2.53 µM,0.65
same,relative viability,RERF-LC-KJ; first compound 8 µM,0.774
same,relative viability,NCI-H1650; first compound 0.253 µM,0.387
same,relative viability,NCI-H1650; first compound 0.8 µM,0.424
same,relative viability,NCI-H1650; first compound 2.53 µM,0.419
same,relative viability,NCI-H1650; first compound 8 µM,0.479
same,relative viability,NCI-H1915; first compound 0.253 µM,0.247
same,relative viability,NCI-H1915; first compound 0.8 µM,0.253
same,relative viability,NCI-H1915; first compound 2.53 µM,0.274
same,relative viability,NCI-H1915; first compound 8 µM,0.241
same,relative viability,BEN; first compound 0.253 µM,0.728
same,relative viability,BEN; first compound 0.8 µM,0.635
same,relative viability,BEN; first compound 2.53 µM,0.766
same,relative viability,BEN; first compound 8 µM,0.62
same,relative viability,EMC-BAC-2; first compound 0.253 µM,0.998
same,relative viability,EMC-BAC-2; first compound 0.8 µM,0.929
same,relative viability,EMC-BAC-2; first compound 2.53 µM,0.995
same,relative viability,EMC-BAC-2; first compound 8 µM,0.801
same,relative viability,NCI-H2085; first compound 0.253 µM,0.546
same,relative viability,NCI-H2085; first compound 0.8 µM,0.542
same,relative viability,NCI-H2085; first compound 2.53 µM,0.529
same,relative viability,NCI-H2085; first compound 8 µM,0.566
same,relative viability,NCI-H2087; first compound 0.253 µM,0.31
same,relative viability,NCI-H2087; first compound 2.53 µM,0.303
same,relative viability,NCI-H2087; first compound 8 µM,0.292
same,relative viability,NCI-H1666; first compound 0.253 µM,0.791
same,relative viability,NCI-H1666; first compound 0.8 µM,0.528
same,relative viability,NCI-H1666; first compound 2.53 µM,0.772
same,relative viability,NCI-H1666; first compound 8 µM,0.647
same,relative viability,LC-2-ad; first compound 0.253 µM,0.685
same,relative viability,LC-2-ad; first compound 0.8 µM,0.81
same,relative viability,LC-2-ad; first compound 2.53 µM,0.744
same,relative viability,LC-2-ad; first compound 8 µM,0.79
same,relative viability,LXF-289; first compound 0.253 µM,0.388
same,relative viability,LXF-289; first compound 0.8 µM,0.351
same,relative viability,LXF-289; first compound 2.53 µM,0.393
same,relative viability,LXF-289; first compound 8 µM,0.335
same,relative viability,NCI-H1993; first compound 0.253 µM,0.658
same,relative viability,NCI-H1993; first compound 0.8 µM,0.588
same,relative viability,NCI-H1993; first compound 2.53 µM,0.529
same,relative viability,NCI-H1993; first compound 8 µM,0.51
same,relative viability,NCI-H358; first compound 0.8 µM,0.228
same,relative viability,NCI-H358; first compound 2.53 µM,0.232
same,relative viability,NCI-H358; first compound 8 µM,0.22
Nc1cccc2c1CN(C1CCC(=O)NC1=O)C2=O (configuration not stated) [Lenalidomide] + O=C(CCCCCCC(=O)Nc1ccccc1)NO [Vorinostat] (partner 1 µM),relative viability,NCI-H2170; first compound 0.253 µM,0.883
same,relative viability,NCI-H2170; first compound 0.8 µM,0.649
same,relative viability,NCI-H2170; first compound 2.53 µM,0.889
same,relative viability,NCI-H2170; first compound 8 µM,0.626
same,relative viability,NCI-H1944; first compound 0.253 µM,0.543
same,relative viability,NCI-H1944; first compound 2.53 µM,0.58
same,relative viability,NCI-H1944; first compound 8 µM,0.44
same,relative viability,HCC-78; first compound 0.253 µM,0.447
same,relative viability,HCC-78; first compound 0.8 µM,0.456
same,relative viability,HCC-78; first compound 2.53 µM,0.474
same,relative viability,HCC-78; first compound 8 µM,0.486
same,relative viability,NCI-H2347; first compound 0.253 µM,0.701
same,relative viability,NCI-H2347; first compound 0.8 µM,0.611
same,relative viability,NCI-H2347; first compound 2.53 µM,0.722
same,relative viability,NCI-H2347; first compound 8 µM,0.448
same,relative viability,SW 900; first compound 2.53 µM,0.679
same,relative viability,SW 900; first compound 8 µM,0.429
same,relative viability,PC-14; first compound 0.253 µM,0.745
same,relative viability,PC-14; first compound 0.8 µM,0.713
same,relative viability,PC-14; first compound 2.53 µM,0.826
same,relative viability,PC-14; first compound 8 µM,0.922
same,relative viability,HCC-366; first compound 0.253 µM,0.335
same,relative viability,HCC-366; first compound 0.8 µM,0.102
same,relative viability,HCC-366; first compound 2.53 µM,0.479
same,relative viability,HCC-366; first compound 8 µM,0.265
same,relative viability,NCI-H650; first compound 0.253 µM,0.492
same,relative viability,NCI-H650; first compound 0.8 µM,0.446
same,relative viability,NCI-H650; first compound 2.53 µM,0.59
same,relative viability,NCI-H650; first compound 8 µM,0.322
same,relative viability,NCI-H2228; first compound 0.253 µM,0.451
same,relative viability,NCI-H2228; first compound 0.8 µM,0.505
same,relative viability,NCI-H2228; first compound 2.53 µM,1.09
same,relative viability,NCI-H2228; first compound 8 µM,1.12
same,relative viability,NCI-H727; first compound 0.253 µM,1.26
same,relative viability,NCI-H727; first compound 0.8 µM,1.04
same,relative viability,NCI-H727; first compound 2.53 µM,1.32
same,relative viability,NCI-H727; first compound 8 µM,1.22
same,relative viability,RERF-LC-KJ; first compound 0.253 µM,0.574
same,relative viability,RERF-LC-KJ; first compound 0.8 µM,0.605
same,relative viability,RERF-LC-KJ; first compound 2.53 µM,0.71
same,relative viability,RERF-LC-KJ; first compound 8 µM,0.686
same,relative viability,NCI-H1650; first compound 0.253 µM,0.545
same,relative viability,NCI-H1650; first compound 0.8 µM,0.527
same,relative viability,NCI-H1650; first compound 2.53 µM,0.543
same,relative viability,NCI-H1650; first compound 8 µM,0.664
same,relative viability,NCI-H1915; first compound 0.253 µM,0.478
same,relative viability,NCI-H1915; first compound 0.8 µM,0.482
same,relative viability,NCI-H1915; first compound 2.53 µM,0.601
same,relative viability,NCI-H1915; first compound 8 µM,0.445
same,relative viability,BEN; first compound 0.253 µM,0.559
same,relative viability,BEN; first compound 0.8 µM,0.5
same,relative viability,BEN; first compound 2.53 µM,0.617
same,relative viability,BEN; first compound 8 µM,0.545
same,relative viability,EMC-BAC-2; first compound 0.253 µM,0.74
same,relative viability,EMC-BAC-2; first compound 0.8 µM,0.42
same,relative viability,EMC-BAC-2; first compound 2.53 µM,0.446
same,relative viability,EMC-BAC-2; first compound 8 µM,0.335
same,relative viability,NCI-H2085; first compound 0.253 µM,0.826
same,relative viability,NCI-H2085; first compound 0.8 µM,0.691
same,relative viability,NCI-H2085; first compound 2.53 µM,0.799
same,relative viability,NCI-H2085; first compound 8 µM,0.624
same,relative viability,NCI-H2087; first compound 0.253 µM,0.809
same,relative viability,NCI-H2087; first compound 2.53 µM,0.84
same,relative viability,NCI-H2087; first compound 8 µM,0.56
same,relative viability,NCI-H1666; first compound 0.253 µM,1.05
same,relative viability,NCI-H1666; first compound 0.8 µM,1.01
same,relative viability,NCI-H1666; first compound 2.53 µM,1.14
same,relative viability,NCI-H1666; first compound 8 µM,1.04
same,relative viability,LC-2-ad; first compound 0.253 µM,0.733
same,relative viability,LC-2-ad; first compound 0.8 µM,0.643
same,relative viability,LC-2-ad; first compound 2.53 µM,0.718
same,relative viability,LC-2-ad; first compound 8 µM,0.735
same,relative viability,LXF-289; first compound 0.253 µM,0.812
same,relative viability,LXF-289; first compound 0.8 µM,0.625
same,relative viability,LXF-289; first compound 2.53 µM,0.798
same,relative viability,LXF-289; first compound 8 µM,0.838
same,relative viability,NCI-H1993; first compound 0.253 µM,0.872
same,relative viability,NCI-H1993; first compound 0.8 µM,0.615
same,relative viability,NCI-H1993; first compound 2.53 µM,0.962
same,relative viability,NCI-H1993; first compound 8 µM,0.383
same,relative viability,NCI-H358; first compound 0.8 µM,0.748
same,relative viability,NCI-H358; first compound 2.53 µM,0.745
same,relative viability,NCI-H358; first compound 8 µM,0.72
